Where two headings read alike, the source gives them in different places.
Assays:
[1] = in vitro stability in CES1−/− mouse plasma; format: in vitro ADME; settings: 10 μM
Protocol: All synthesized prodrugs were next screened for in vitro stability in carboxylesterase 1 knockout (CES1^−/−) mouse plasma, as well as CES1^−/− mouse brain and liver homogenates (Table 2-1). We have previously reported that CES1^−/− mouse model recapitulates human prodrug metabolism. Tenora et al., 2019.
(§1) Zimmermann et al., 2018. For the tissue homogenates, washed tissues were diluted 10-fold in 0.1 M potassium phosphate buffer and homogenized using a probe sonicator. To evaluate the stability of the intact prodrug over time, each of the crude homogenates and plasma were aliquoted to 1 mL and then spiked with a final assay concentration of 10 μM of each prodrug followed by incubation in an orbital shaker at 37° C. for 1 h (in triplicate). Sample from each incubation at predetermined time points (0 min, and 1 h) was quenched with three volumes of acetonitrile containing the internal standard (IS; losartan: 0.5 μm). Samples were vortex-mixed for 30 secs and centrifuged at 10,000×g for 10 min at 4° C. Disappearance of intact prodrugs from these samples were performed on a Dionex ultra-high-performance LC system coupled with Q Exactive Focus orbitrap mass spectrometer (Thermo Fisher Scientific Inc., Waltham MA). The separation of analytes was achieved using the Agilent Eclipse Plus column (100×2.1 mm i.d.; maintained at 35° C.) packed with a 1.8 μm C18 stationary phase. The mobile phase consisted of 0.1% formic acid in water and 0.1% formic acid in acetonitrile. Pumps were operated at a flow rate of 0.4 mL/min for 9 min using gradient elution. The mass spectrometer controlled by Xcalibur software 4.0.27.13 (Thermo Scientific) was operated with a heated electrospray ionization (HESI) ion source in positive ionization mode. Quantification of the prodrugs were performed in the full-scan mode (from m/z 50 to 1600) by comparing t=0 samples with t=60 min samples.

[2] = in vitro stability in CES1−/− mouse brain homogenates; format: in vitro ADME; settings: CES1−/− mouse brain homogenate, 10 μM, 37° C.
Protocol: (§2) All synthesized prodrugs were next screened for in vitro stability in carboxylesterase 1 knockout (CES1^−/−) mouse plasma, as well as CES1^−/− mouse brain and liver homogenates (Table 2-1). We have previously reported that CES1^−/− mouse model recapitulates human prodrug metabolism.
as §1, with “For” for “Zimmermann et al., 2018. For”, “The separation of analytes was achieved using the Agilent Eclipse Plus column (100×2.1 mm i.d.; maintained at 35° C.) packed with a 1.8 μm C18 stationary phase.” left out

[3] = in vitro stability in CES1−/− mouse liver homogenates; format: in vitro ADME; settings: CES1−/− mouse liver homogenate, 10 μM, 37° C.
Protocol: as §2
as §1, with “For” for “Zimmermann et al., 2018. For”, “The separation of analytes was achieved using the Agilent Eclipse Plus column (100×2.1 mm i.d.; maintained at 35° C.) packed with a 1.8 μm C18 stationary phase.” left out

[4] = in vivo pharmacokinetic studies in mice (Example 1); design: species or system mouse; settings: mice; for Cmax / AUC / Tmax: po
Protocol: 1.2.1 In vitro metabolic stability assessment. In vitro metabolic stability assessment was performed using mouse plasma, and liver homogenates. For the liver homogenates, washed tissues were diluted 10-fold in 0.1 M potassium phosphate buffer and homogenized using a probe sonicator. To evaluate the stability of the intact prodrug over time, each of the tissue matrix were aliquoted to 1 mL and then spiked with 10 μM of corresponding prodrugs followed by incubation in an orbital shaker at 37° C. for 1 h (in triplicate). Sample from each incubation at predetermined time points (0 min, and 1 h) was quenched with three volumes of acetonitrile containing the internal standard (IS: losartan: 0.5 μm). Samples were vortex-mixed for 30 secs and centrifuged at 10,000 RPM for 10 min at 4° C. Disappearance of the intact compound was measured using liquid chromatography tandem mass spectrometry (LC-MS/MS). 1.2.2 In vivo pharmacokinetic studies in mice. Male CD-1 mice (n=3) were used to study the pharmacokinetic profiles of representive prodrug compounds. […] Blood and brain were collected after sacrificing the mice at predetermined time points. Plasma was harvested from blood by centrifugation at 3,000 RPM for 15 min and stored at −80° C. Brain tissues were harvested following blood collection and immediately snap frozen in liquid nitrogen and stored at −80° C. until LC-MS/MS analysis. […] Brain tissues were diluted 1:5 w/v with acetonitrile containing losartan (0.5 μm) and homogenized, followed by vortex-mixing and centrifugation at 10,000 RPM for 10 min at 4° C. A 50 μL aliquot of the supernatant was diluted with 50 μL of water and transferred to 250 μL polypropylene autosampler vials sealed with teflon caps. Then, 2 μL of the sample was injected into the LC-MS/MS system for analysis.

[5] = CES1−/− (carboxylesterase 1 knockout), mouse, plasma
[6] = male, CD-1, mouse, intact prodrug, brain, 10 mg/kg eqv
[7] = male, CD-1, mouse, intact prodrug, plasma, 10 mg/kg eqv

Compound | Stability in mouse (% remaining at 1h) Mean + Std Error, Plasma ([1]; CES1−/− mouse plasma, 37° C.) | Stability in mouse (% remaining at 1h) Mean + Std Error, Brain [2] | Stability in mouse (% remaining at 1h) Mean + Std Error, Liver [3] | other results
COc1cc(-c2nc(-c3ccccc3)c(-c3cccs3)[nH]2)cc(OC)c1OC(=O)N1C2CCC1CC(N1CCCCC1)C2 (centres unmarked) [Compound P13, 2,6-Dimethoxy-4-(5-phenyl-4-(thiophen-2-yl)-1H-imidazol-2-yl)phenyl 3-(piperidin-1-yl)-8-azabicyclo[3.2.1]octane-8-carboxylate] | 87 ± 2% | 84 ± 1% | 78 ± 4% | 
CCCCCNC(=O)Oc1c(OC)cc(-c2nc(-c3ccccc3)c(-c3cccs3)[nH]2)cc1OC [Compound P8, 2,6-Dimethoxy-4-(5-phenyl-4-(thiophen-2-yl)-1H-imidazol-2-yl)phenyl pentylcarbamate] | 60 ± 6% |  | 83 ± 2% | 
CCCCCCCNC(=O)Oc1c(OC)cc(-c2nc(-c3ccccc3)c(-c3cccs3)[nH]2)cc1OC [Compound P9, 2,6-Dimethoxy-4-(5-phenyl-4-(thiophen-2-yl)-1H-imidazol-2-yl)phenyl heptylcarbamate] | 60 ± 4% | 84 ± 4% | 97 ± 4% | 
COc1cc(-c2nc(-c3ccccc3)c(-c3cccs3)[nH]2)cc(OC)c1OC(=O)N1C2CCCC1CC2 [Compound P12, 2,6-Dimethoxy-4-(5-phenyl-4-(thiophen-2-yl)-1H-imidazol-2-yl)phenyl 8-azabicyclo[3.2.1]octane-8-carboxylate] |  |  |  | Stability in mouse (% remaining at 1h) Mean + Std Error, Plasma [1, 5]: 85 ± 9%
CCCCCN(C)C(=O)Oc1c(OC)cc(-c2nc(-c3ccccc3)c(-c3cccs3)[nH]2)cc1OC [Compound P7, 2,6-Dimethoxy-4-(5-phenyl-4-(thiophen-2-yl)-1H-imidazol-2-yl)phenyl methyl (pentyl) carbamate] | 50 ± 2% |  | 85 ± 3% | 
COc1cc(-c2nc(-c3ccccc3)c(-c3cccs3)[nH]2)cc(OC)c1OCOP(=O)(O)O [Compound P15, (2,6-Dimethoxy-4-(4-phenyl-5-(thiophen-2-yl)-1H-imidazol-2-yl)phenoxy) methyl dihydrogen phosphate] |  |  | 21 ± 0% | 
COc1cc(-c2nc(-c3ccccc3)c(-c3cccs3)[nH]2)cc(OC)c1OC(=O)c1ccc[n+](C)c1.[I-] [Compound 6] |  |  |  | brain levels of DPTIP ([4]; oral 10 mg/kg DPTIP equivalent): approximately 150 nM
COc1cc(-c2nc(-c3ccccc3)c(-c3cccs3)[nH]2)cc(OC)c1OP(=O)(O)O [Compound P14, 2,6-Dimethoxy-4-(4-phenyl-5-(thiophen-2-yl)-1H-imidazol-2-yl)phenyl dihydrogen phosphate] | 91 ± 4% | 102 ± 2% | 55 ± 1% | 
CCCN(CCC)C(=O)Oc1c(OC)cc(-c2nc(-c3ccccc3)c(-c3cccs3)[nH]2)cc1OC [Compound P11, 2,6-Dimethoxy-4-(5-phenyl-4-(thiophen-2-yl)-1H-imidazol-2-yl)phenyl dipropylcarbamate] | 99 ± 2% | 95 ± 4% | 62 ± 4% | 
COc1cc(-c2nc(-c3ccccc3)c(-c3cccs3)[nH]2)cc(OC)c1OC(=O)N(C)C [Compound P5, 2,6-Dimethoxy-4-(4-phenyl-5-(thiophen-2-yl)-1H-imidazol-2-yl)phenyl dimethylcarbamate] | 96 ± 3% | 100 ± 2% | 100 ± 1% | Cmax ([4]; male, CD-1, mouse, in vivo, 10 mg/kg, oral 10 mg/kg DPTIP equivalent, read-out: plasma Cmax of intact prodrug): 4300 nM; improved oral absorption as intact versus DPTIP ([4]; plasma Cmax, oral 10 mg/kg DPTIP equivalent): 10 ×
COc1cc(-c2nc(-c3ccccc3)c(-c3cccs3)[nH]2)cc(OC)c1OC(=O)C(C)(C)C [Compound P4, 2,6-Dimethoxy-4-(4-phenyl-5-(thiophen-2-yl)-1H-imidazol-2-yl)phenyl pivalate] |  | 93 ± 1% |  | 
CCCCCC(=O)Oc1c(OC)cc(-c2nc(-c3ccccc3)c(-c3cccs3)[nH]2)cc1OC [Compound P2, 2,6-Dimethoxy-4-(4-phenyl-5-(thiophen-2-yl)-1H-imidazol-2-yl)phenyl hexanoate] |  |  |  | Kp ([4]; male, CD-1, mouse, brain and plasma, oral, intact prodrug, 10 mg/kg eqv, read-out: Brain:Plasma ratio): 0.23; AUC [4, 6]: 1.66 nM·h; Tmax [4, 6]: 15 min; Cmax ([4]; male, CD-1, mouse, intact prodrug, brain, 10 mg/kg eqv, read-out: Cmax): 9.8 ± 0.6 nM; AUC [4, 7]: 7.04 nM·h; Tmax [4, 7]: 15 min; Cmax ([4]; male, CD-1, mouse, intact prodrug, plasma, 10 mg/kg eqv, read-out: Cmax): 51.1 ± 4.6 nM
CCC1CCCC(CC)N1C(=O)Oc1c(OC)cc(-c2nc(-c3ccccc3)c(-c3cccs3)[nH]2)cc1OC (centres unmarked) [Compound P10, 2,6-Dimethoxy-4-(5-phenyl-4-(thiophen-2-yl)-1H-imidazol-2-yl)phenyl 2,6-diethylpiperidine-1-carboxylate] |  | 90 ± 1% | 51 ± 1% | Stability in mouse (% remaining at 1h) Mean + Std Error, Plasma [1, 5]: 78 ± 5%

From patent US20240287108A1, “nSMASE2 INHIBITOR PRODRUGS WITH ENHANCED ORAL AND BRAIN EXPOSURES” (The Johns Hopkins University, priority 2021, published 2024)
